Source: a melting point compilation (Tetko et al.)

Row | SMILES | melting point [°C]
1 | Nc1ccc(C(=O)NCCN2CCCC2)cc1 | 137 to 139
2 | CS(=O)(=O)c1cccc(C(N)=O)c1 | 177 to 179
3 | COc1ccc(Cl)cc1/C=C/C(=O)O | 199 to 201
4 | O=C(O)Cc1c[nH]c2cc(Cl)ccc12 | 185 to 187
5 | Nc1ccc(S(=O)(=O)CCO)cc1 | 106 to 108
6 | NS(=O)(=O)c1ccc(F)c2ncccc12 | 256 to 258
7 | Sc1nnc(C2COc3ccccc3O2)o1 (stereo not drawn) | 151 to 155
8 | O=C1CCCN1c1cccc([N+](=O)[O-])c1 | 107 to 109
9 | CC(=O)Nc1ccc(CCN)cc1 | 121 to 123
10 | NS(=O)(=O)c1ccccc1-c1ccccc1 | 116 to 118
11 | O=C(O)c1ccccc1Cc1nc2ccccc2c(=O)[nH]1 | 283 to 285
12 | CN(C)S(=O)(=O)c1ccc2[nH]c(=O)oc2c1 | 202 to 204
13 | Nc1nnc(-c2cnn(-c3ccccc3)c2)o1 | 283 to 285
14 | CCn1c(S)nnc1C1CC1 | < 17
15 | O=S(=O)(Cl)c1c[nH]c2ncccc12 | 187 to 189
16 | Cc1ccc(C(C)C)c(OCC(=O)O)c1 | 126 to 128
17 | CC(C)(C)OC(=O)Oc1ccc(N)cc1 | 112 to 114
18 | CC(C)c1ccc(CCNC(=O)CCl)cc1 | 54 to 56
19 | CS(=O)(=O)c1cccc(Oc2ccc(N)cc2)c1 | 103 to 105
20 | NC(=O)C1CNCCN1 (stereo not drawn) | 142 to 144
21 | Cc1c(C)n(Cc2ccco2)c2ncnc(N)c12 | 180 to 182
22 | O=C(O)C1CN(C(=O)c2ccco2)c2ccccc2O1 (stereo not drawn) | 154 to 156
23 | Cc1cc(C=O)c(C)n1-c1ccc(F)cc1 | 100 to 102
24 | Cn1nc(Br)c2c(NCCN)ncnc21 | 120 to 122
25 | Cc1noc(C)c1S(=O)(=O)N1CCCC1C(=O)O (stereo not drawn) | 133 to 137

Row | SMILES | melting point [°C]
26 | Cn1ccc(C(=O)N2CCC[C@H]2C(=O)O)cc1=O | 149 to 151
27 | CCOc1ccc(Cl)c(C(=O)O)n1 | 127 to 129
28 | O=C1COc2ccccc2C(=O)N1 | 149 to 151
29 | O=C1CCCCc2c[nH]cc21 | 64 to 66
30 | CSc1ccc(Cl)nn1 | 104 to 106
31 | Cc1nc(N2CCOCC2)sc1C=O | 166 to 168
32 | CN(C)S(=O)(=O)CCC(=O)O | 121 to 123
33 | CCCCS(=O)(=O)Nc1ccc(F)c(N)c1 | 71 to 73
34 | N#Cc1cccc(S(=O)(=O)Nc2cn[nH]c2)c1 | 162 to 164
35 | CCOc1c(C#N)cnc2ccccc12 | 98 to 100
36 | Cc1ccccc1Cc1nn[nH]n1 | 156 to 158
37 | O=C(NCc1ccco1)n1ccnc1 | 145 to 147
38 | Cc1cc(Cl)ccc1S(=O)(=O)Cl | 54 to 56
39 | COC(=O)c1cc(N)cc(Cl)c1 | 95 to 97
40 | CC(C)Nc1cccc(O)c1 | 95 to 97
41 | Clc1nnc(-c2ccccn2)s1 | 105 to 107
42 | NC(=O)NCc1ccccc1Cl | 149 to 151
43 | OCCc1cc2cc(Br)ccc2o1 | 67 to 69
44 | CC(C)(C)OC(=O)N1CCC(COS(C)(=O)=O)CC1 | 84 to 86
45 | CC(=O)c1cccc(S(=O)(=O)NCCC(=O)O)c1 | 106 to 110
46 | Nc1cc(Br)ccc1N1CCOCC1 | 153 to 155
47 | CC(=O)Nc1ccsc1 | 146 to 148
48 | OC(c1c(F)cncc1Br)C1CCCCC1 (stereo not drawn) | 76 to 78
49 | O=C(O)c1cc(S(=O)(=O)N2CCCCC2)ccc1N1CCCC1 | 120 to 122
50 | Cc1[nH]ncc1Cl | 64 to 66

Row | SMILES | melting point [°C]
51 | Cc1c(N)cccc1COC1CCCCC1 | 54 to 56
52 | NNc1ccc(Cl)nc1 | 131 to 133
53 | CC(C)Cn1cc(C(F)F)c(C(=O)O)n1 | 94 to 96
54 | O=c1[nH]c(N2CCOCC2)nc2scc(-c3ccccc3)c12 | 307 to 309
55 | O=C1CCS(=O)(=O)CC1 | 167 to 169
56 | Nc1nc(Cl)ccc1C(=O)O | 216 to 218
57 | CC1(C(=O)O)CCc2ccccc2C1 (stereo not drawn) | 105 to 107
58 | CC1(c2cc(F)ccc2F)NC(=O)NC1=O (stereo not drawn) | 227 to 229
59 | NS(=O)(=O)CC1CCCC1 | 42 to 44
60 | O=C(O)CCc1cccc([N+](=O)[O-])c1 | 111 to 113
61 | Cn1cc(C(=O)O)c(-c2ccc([N+](=O)[O-])cc2)n1 | 299 to 301
62 | Nc1cc(C(=O)O)ccc1Br | 226 to 230
63 | CS(=O)(=O)CCC(NC(=O)c1ccccc1Cl)C(=O)O (stereo not drawn) | 159 to 161
64 | CCN(CC)c1ccc(S(=O)(=O)N2CCOCC2)cc1N | 99 to 101
65 | Cc1c(Br)cc(S(C)(=O)=O)cc1C(=O)O | 134 to 136
66 | CCc1ccc2nc(N)sc2c1 | 105 to 107
67 | Cc1nc(N)ccc1C=CC(=O)O | 253 to 255
68 | O=C(O)Cc1coc(-c2cccs2)n1 | 185 to 187
69 | Cc1ccc(C(=O)NC(CC(=O)O)c2ccccc2)cc1 (stereo not drawn) | 190 to 192
70 | Fc1ccc2oc(Cl)nc2c1 | 33 to 35
71 | CN(C)C(=S)Oc1cccc(C=O)c1 | 65 to 67
72 | Cc1cc(C(=O)CCl)c(C)n1-c1cccc(Br)c1 | 102 to 104
73 | CCc1ccc2cc(C(=O)O)[nH]c2c1 | 178 to 180
